The values below come from publication PMC4718634, “Murine GPRC6A Mediates Cellular Responses to L-Amino Acids, but Not Osteocalcin Variants” (PLoS ONE, 2016).

Test [1] concerns the target T1, mGPRC6A (mouse GPRC6A) (Mus musculus, UniProt Q8K4Z6).
T1 sequence (Q8K4Z6 21-928): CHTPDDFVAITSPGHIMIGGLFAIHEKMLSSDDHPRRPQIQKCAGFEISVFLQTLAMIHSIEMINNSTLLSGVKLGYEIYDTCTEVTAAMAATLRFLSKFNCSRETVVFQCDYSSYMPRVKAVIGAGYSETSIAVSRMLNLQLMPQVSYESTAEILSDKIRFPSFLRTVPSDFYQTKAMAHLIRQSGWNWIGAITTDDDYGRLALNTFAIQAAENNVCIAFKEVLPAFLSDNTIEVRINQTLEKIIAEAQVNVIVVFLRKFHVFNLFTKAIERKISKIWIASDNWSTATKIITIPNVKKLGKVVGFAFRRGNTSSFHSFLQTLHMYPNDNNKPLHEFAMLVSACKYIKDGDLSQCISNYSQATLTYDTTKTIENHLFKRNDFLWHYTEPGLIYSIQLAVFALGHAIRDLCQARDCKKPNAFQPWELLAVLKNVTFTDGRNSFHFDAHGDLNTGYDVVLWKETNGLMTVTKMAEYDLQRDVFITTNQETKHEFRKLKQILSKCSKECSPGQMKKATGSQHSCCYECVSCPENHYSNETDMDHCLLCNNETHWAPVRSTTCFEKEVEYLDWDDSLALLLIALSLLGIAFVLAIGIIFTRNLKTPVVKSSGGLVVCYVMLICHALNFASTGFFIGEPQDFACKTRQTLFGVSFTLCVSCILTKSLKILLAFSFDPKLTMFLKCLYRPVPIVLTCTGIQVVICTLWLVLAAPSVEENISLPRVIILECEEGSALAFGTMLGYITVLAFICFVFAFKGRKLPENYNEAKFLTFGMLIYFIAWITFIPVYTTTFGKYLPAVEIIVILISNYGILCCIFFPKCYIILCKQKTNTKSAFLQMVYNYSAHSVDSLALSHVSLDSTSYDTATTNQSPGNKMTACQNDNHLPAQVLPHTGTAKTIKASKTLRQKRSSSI
The experiment in a line: Cyclic AMP accumulation, HEK293-pIRES-puro6-mGPRC6A cells. The class given is cell-based. Particulars: pIRES-puro6 higher-expressing line, S2 Fig. How it is done: pcDNA 5/FRT/TO constructs were isogenically integrated into a FlpIn-TREx-HEK293 cell line (Life Technologies). FlpIn-TREx-HEK293-mGPRC6A and FlpIn-TREx-HEK293-hGPRC6A cells were then selected using 600 μg/ml hygromycin and 5 μg/ml blasticidin and grown in culture medium consisting of Dulbecco’s Modified Eagle Medium (DMEM), supplemented with 10% (v/v) foetal bovine serum (FBS) at 37°C in 5% CO2 and were sub-cultured in a 1:3 ratio every 3–4 days. Cells were cultured overnight in the presence of 1 μg/ml tetracycline to induce GPRC6A expression. […] 48 h after transfection, cells were selected using 3 μg/ml puromycin and grown as above.
HEK293-mGPRC6A cells were seeded at a density of 10^5 cells per well into PDL-coated 96-well plates and incubated overnight in DMEM, supplemented with 10% FBS (v/v) at 37°C in 5% CO2. Cells were then incubated in 90 μl of stimulation buffer (HBSS containing 5 mM HEPES, 0.1% BSA (w/v), 0.5 mM IBMX; pH 7.4) for 30 min at 37°C. Test compounds (10 μl at 10 x final) were added and cells were incubated for an additional 30 min at 37°C. The medium was removed and cells were incubated in 50 μl of ice-cold 100% ethanol. […] Samples were analysed using the Alphascreen® cAMP assay kit (Perkin Elmer) following manufacturer instructions. […] After overnight (16 h) incubation at RT, plates were read using the Envision plate reader.

For test [2], the system named is GLUTag cells. Particulars: endogenous; ref [17] (supplement list); cited from earlier work. The text has this: (§1) Supplement pone.0146846.s004.docx, table 1 | column: Functional assay
Test [3] has as its system Unknown species GPRC6A. Particulars: ref [11] (supplement list); cited from earlier work.
Text: as §1

The subject of test [4] is 3T3-L1 adipocytes. Conditions: endogenous; ref [16] (supplement list); cited from earlier work.
Text: as §1

In test [5] the test system is TM3 Leydig cells. Conditions: endogenous; ref [12] (supplement list); cited from earlier work.
Text: as §1

For test [6], the system named is GPRC6A. Conditions: ref [6] (supplement list); cited from earlier work.
Text: as §1

Test [7] concerns MA-10 Leyding cells. Particulars: endogenous; ref [15] (supplement list); cited from earlier work.
Text: as §1

Test [8] relates to hC6A. Conditions: ref [9] (supplement list); cited from earlier work.
Text: as §1

Test [9] has as its system TC6. Particulars: endogenous; ref [11] (supplement list); cited from earlier work.
Text: as §1

Test [10] has as its system 22RV1. Conditions: endogenous, cited from earlier work.
Text: as §1

Test [11] relates to MC3T3-E1. Conditions: endogenous; ref cell of this line empty; cited from earlier work.
Text: as §1

The test system of test [12] is 22RV1 / PC-3. Conditions: endogenous; ref [9] (supplement list); cited from earlier work.
Text: as §1

Consider `NCCC[C@H](N)C(=O)O` [L-ornithine], for which, in [1] (forskolin 3 μM), the “inhibition of forskolin-stimulated cAMP” value is “none of the ligands inhibit”. Further, the “stimulation of cAMP accumulation” value in [1] is listed as “Neither L-ornithine nor OCN variants stimulate cAMP accumulation”. Also, the GLP-1 secretion response entry in [2] was “response”.
In the case of “OCN: osteoblast-derived peptide, osteocalcin; variant not specified at the place (YLYQWLGAPVPYPDPLEPRREVCELNPDCDELADHIGFQEAYRRFYGPV; UniProt P02818 52-100, looked up)”, in test [3], the pERK1/2 response entry was “pERK1/2 - response to Ca^2+, L-Arg, OCN”. Also, in test [4], the “Adiponectin, PPARγ expression response” value is “cAMP – response to OCN pERK1/2 – response to OCN pCREB – response to OCN Adiponectin, PPARγ expression – response to OCN”; the cAMP response result is given as “cAMP – response to OCN pERK1/2 – response to OCN pCREB – response to OCN Adiponectin, PPARγ expression – response to OCN”; the pCREB response entry was “cAMP – response to OCN pERK1/2 – response to OCN pCREB – response to OCN Adiponectin, PPARγ expression – response to OCN”; the pERK1/2 response result is “cAMP – response to OCN pERK1/2 – response to OCN pCREB – response to OCN Adiponectin, PPARγ expression – response to OCN”. Besides, in [5], the “Ca2+i response” value was “negative”, the cAMP response entry is “response”, the pCREB response result is listed as “response” and the pERK1/2 response entry is given as “negative”. For the same molecule, in test [6], the SRE-reporter gene response result is “pERK1/2 – response to Ca^2+, Mg^2+, Gd^3+, Al^3+, NPS R568 SRE-reporter gene – response to CaCl2, SrCl2, MgCl2, GdCl3 and OCN”. Further, in [7], the “Ca^2+i response” value was “response”, the “Release of 25-OH-Vit D or Testosterone” value was “response” and the cAMP response result is “no response”. For the same molecule, the pERK1/2 response entry in test [8] is “pERK1/2 – response to Ca^2+, ZnCl2, OCN, Arginine, Testosterone-BSA”. For the same molecule, the “pERK1/2, pPKD1 response” value in test [9] is recorded as “pERK1/2, pPKD1 – response to OCN, L-Arg”. Also, the “Chemotaxis (22RV1) response” value in test [10] (ref [9] (supplement list)) is reported as “pERK1/2 – response to Ca^2+, ZnCl2, OCN, Arginine, Testosterone-BSA Proliferation – response to Ca^2+, OCN PSA, Runx2 expression – response to OCN, Arg, R1881 Chemotaxis (22RV1) – response to Ca^2+, OCN”. In test [10] (ref [10] (supplement list)), the Proliferation response result is “pERK1/2 – response to Testosterone-BSA, Proliferation – response to Ca^2+, OCN, Testosterone-BSA”. Besides, in test [11], the SRE-reporter gene response result is “SRE-reporter gene – response to OCN”. Further, in test [12], the “PSA, Runx2 expression response” value is reported as “pERK1/2 – response to Ca^2+, ZnCl2, OCN, Arginine, Testosterone-BSA Proliferation – response to Ca^2+, OCN PSA, Runx2 expression – response to OCN, Arg, R1881 Chemotaxis (22RV1) – response to Ca^2+, OCN”; the Proliferation response result was “pERK1/2 – response to Ca^2+, ZnCl2, OCN, Arginine, Testosterone-BSA Proliferation – response to Ca^2+, OCN PSA, Runx2 expression – response to OCN, Arg, R1881 Chemotaxis (22RV1) – response to Ca^2+, OCN”; the pERK1/2 response result is reported as “pERK1/2 – response to Ca^2+, ZnCl2, OCN, Arginine, Testosterone-BSA Proliferation – response to Ca^2+, OCN PSA, Runx2 expression – response to OCN, Arg, R1881 Chemotaxis (22RV1) – response to Ca^2+, OCN”.
